Measurements from article PMC9203748, “Metabolism and antioxidant activity of SlGSTD1 in Spodoptera litura as a detoxification enzyme to pyrethroids” (Scientific Reports, 2022).
Like-named read-outs stand apart in the source and are kept apart here.

Experiments:
SlGSTD1 [1] = molecular target: T1, SlGSTD1 (Spodoptera litura, UniProt A0A9J7IUS4); test: inhibition of GSH-CDNB conjugation, A340; format: biochemical
T1 construct: gene LOC111355915
T1 sequence (A0A9J7IUS4 1-221): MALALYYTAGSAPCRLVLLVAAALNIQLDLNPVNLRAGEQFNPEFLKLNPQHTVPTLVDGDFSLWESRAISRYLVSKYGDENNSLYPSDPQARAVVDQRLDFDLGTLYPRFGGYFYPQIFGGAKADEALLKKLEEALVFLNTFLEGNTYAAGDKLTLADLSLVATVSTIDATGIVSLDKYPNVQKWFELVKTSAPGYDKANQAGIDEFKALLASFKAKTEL

SlGSTD1 [2] = molecular target: T1, SlGSTD1; test: GSH conjugation, A340, Michaelis-Menten fit; format: biochemical; settings: GSH 30 μL of 100 μmol mL^−1 in about 1.1 mL; PBS 0.1 mol L^−1 pH 7.0

SMILES: CC(C)C(C(=O)OC(C#N)c1cccc(Oc2ccccc2)c1)c1ccc(Cl)cc1 (centres unmarked) [fenvalerate]
- IC50 (SlGSTD1 [1]): 21.6 ± 3.2 µM

SMILES: CCOC(=O)/C=C\C(=O)OCC [DEM, reference compound]
- IC50 (SlGSTD1 [1]; read-out: IC50): 2.1 ± 0.3 µM

SMILES: O=[N+]([O-])c1ccc(Cl)c([N+](=O)[O-])c1 [CDNB]
- Km (SlGSTD1 [2]): 1680 ± 110 µM

SMILES: CCOP(=S)(OCC)Oc1nc(Cl)c(Cl)cc1Cl [chlorpyrifos]
- IC50 (SlGSTD1 [1]): 170 ± 15.2 µM

SMILES: CC1(C)C(/C=C(\Cl)C(F)(F)F)C1C(=O)OC(C#N)c1cccc(Oc2ccccc2)c1 (centres unmarked) [cyhalothrin]
- IC50 (SlGSTD1 [1]): 124 ± 10.3 µM
